Assay results as given in patent publication US20100227897A1, “Composition for Controlling Colorado Potato Beetles” (FMC CORPORATION, priority 2006, published 2010).

System: Colorado potato beetles (Leptinotarsa decemlineata Say)
Test: Field test of foliar sprays on potato plots: efficacy on Colorado potato beetles, number of larvae alive
Assay type: in vivo
Settings: for Number Larvae Alive 3 DAT: 3 days after treatment; for Number Larvae Alive 3 DAT / Number Larvae Alive 7 DAT / Number Larvae Alive 14 DAT / Number Larvae Alive 21 DAT / Number Larvae Alive 28 DAT: foliar spray; for Number Larvae Alive 7 DAT: 7 days after treatment; for Number Larvae Alive 14 DAT: 14 days after treatment; for Number Larvae Alive 21 DAT: 21 days after treatment; for Number Larvae Alive 28 DAT: 28 days after treatment; for Number Larvae Alive 0 Days: before treatment (0 days, baseline)
Procedure: The compositions of the present invention were tested for Colorado Potato Beetle activity in the following manner:
Test compositions made up of Fury 10 EW, Mospilan 20 SP and Regent 200 SC were prepared that provided appropriate rates of application of combinations of zeta-cypermethrin, acetamiprid and fipronil, as well as zeta-cypermethrin, acetamiprid and fipronil alone.
The test was set up as a randomized complete block with 3 replicates. Each test plot was 24 meters square containing 3 rows of 50 plants. All test materials were applied as a foliar spray in 300 liters per hectare of water using a PILMET 212 sprayer at 0.35 Mpa. Observations were made before treatment (0 days), 3 days after treatment (DAT), 7 DAT, 14 DAT, 21 DAT and 28 DAT. For each observation 50 plants were inspected. For each observation the number of larvae reported was the total on the 10 most infested plants. Results reported are an average of three replicates.

For `CC1(C)C(C=C(Cl)Cl)C1C(=O)OC(C#N)c1cccc(Oc2ccccc2)c1` [A, (R,S)-α-cyano-3-phenoxybenzyl-(1R,S)-cis-trans-3-(2,2-dichlorovinyl)-2,2-dimethylcyclopropanecarboxylate], the “Number Larvae Alive 3 DAT” value (A 200 ml per hectare) was 10, the “Number Larvae Alive 7 DAT” value (A 200 ml per hectare) was 18 and the “Number Larvae Alive 14 DAT” value (A 200 ml per hectare) was 15. For the same compound, the “Number Larvae Alive 21 DAT” value (A 200 ml per hectare) was 43, the “Number Larvae Alive 28 DAT” value (A 200 ml per hectare) was 20 and the “Number Larvae Alive 0 Days” value (A 200 ml per hectare, total on 10 most infested plants, average of 3 replicates) was 303.
In the case of `C/C(=N\C#N)N(C)Cc1ccc(Cl)nc1` [B, (E)-N^1-[(6-chloro-3-pyridyl)methyl]-N^2-cyano-N^1-methylacetamidine], the “Number Larvae Alive 3 DAT” value (B 100 g per hectare) is reported as 8, the “Number Larvae Alive 7 DAT” value (B 100 g per hectare) is reported as 22 and the “Number Larvae Alive 14 DAT” value (B 100 g per hectare) is reported as 18. For the same compound, the “Number Larvae Alive 21 DAT” value (B 100 g per hectare) was 38, the “Number Larvae Alive 28 DAT” value (B 100 g per hectare) was 47 and the “Number Larvae Alive 0 Days” value (B 100 g per hectare) was 362.
In the case of `N#Cc1nn(-c2c(Cl)cc(C(F)(F)F)cc2Cl)c(N)c1[S+]([O-])C(F)(F)F` (stereo not drawn) [C, 5-amino-1-(2,6-dichloro-α,α,α-trifluoro-p-tolyl)-4-trifluoromethylsulfinylpyrazole-3-carbonitrile], the “Number Larvae Alive 3 DAT” value (C 100 ml per hectare) is reported as 2, the “Number Larvae Alive 7 DAT” value (C 100 ml per hectare) is reported as 0 and the “Number Larvae Alive 14 DAT” value (C 100 ml per hectare) is reported as 0. For the same compound, the “Number Larvae Alive 21 DAT” value (C 100 ml per hectare) was 22, the “Number Larvae Alive 28 DAT” value (C 100 ml per hectare) was 17 and the “Number Larvae Alive 0 Days” value (C 100 ml per hectare) was 359.
